The test in a line: DPPH (1,1-diphenyl-2-picrylhydracil) antioxidant/antiradical power assay. As to conditions: initial DPPH• around 60 μM; absorbance at 517 nm; calculated from the curves of FIG. 3. The protocol: FIG. 3. Antioxidant efficacy of phenolic compounds in the DPPH assay. The absorbance (A) at 517 nm is a measure of the amount of free radical remaining in solution. (1−A/A0)×100 represents the percentage of DPPH that has reacted with the antioxidant. The amount of antioxidant expressed as micromoles per micromole of initial DPPH• to correct the possible day to day variation in the amount of initial DPPH• The initial concentration of DPPH• is calculated from the absorbance (A) and a calibration line. Each point represents the mean of three determinations.
The new molecules are potent antioxidants with an excellent capacity to capture free radicals. The conjugates are more efficient than Trolox (water-soluble analogue of Vitamin E) in the DPPH assay (1,1-diphenyl-2-picrylhydracil) [Brand-Williams, W., Cuvelier, M. E., Berset, C., Lebensm.-Wiss. u.-Technol., 28, 25-30 (1995)]. The conjugates are also more efficient than the corresponding non-derived species.
The new pure products are strong antioxidants/capturers of free radicals. FIG. 3 presents the results of the DPPH test (1,1-diphenyl-2-pycrylhydracil). The values of EC50 (effective concentration 50) are calculated from the curves. EC50 is the amount of antioxidant required to reduce the initial concentration to half (around 60 μM) of DPPH•. This amount is expressed as micromoles antioxidant/micromoles initial DPPH•. The EC50 values for compounds relevant to the present invention are: Trolox (water-soluble analogue of Vitamin E), 0.26; (−)-epicatechine, 0.19, 4ξ-(2-aminoethylthio)epicatechine I, 0.11; 4ξ-(2-aminoethylthio)epicatechinegalate III, 0.11.
`NCCSC1c2c(O)cc(O)cc2O[C@H](c2ccc(O)c(O)c2)[C@H]1O` (stereo partly shown) [I, 4ξ-(2-aminoethylthio)epicatechine]: the “EC50 (amount of antioxidant required to reduce the initial concentration of DPPH• to half)” value is 0.11 micromoles antioxidant/micromoles initial DPPH•.
For the molecule `NCCSC1c2c(O)cc(O)cc2O[C@H](c2ccc(O)c(O)c2)[C@H]1OC(=O)c1cc(O)c(O)c(O)c1` (stereo partly shown) [III, 4ξ-(2-aminoethylthio)epicatechinegalate], the “EC50 (amount of antioxidant required to reduce the initial concentration of DPPH• to half)” value is given as 0.11 micromoles antioxidant/micromoles initial DPPH•.
As to `Cc1c(C)c2c(c(C)c1O)CCC(C)(C(=O)O)O2` (stereo not shown) [Trolox], the “EC50 (amount of antioxidant required to reduce the initial concentration of DPPH• to half)” value is 0.26 micromoles antioxidant/micromoles initial DPPH•.
Regarding (−)-epicatechine, the “EC50 (amount of antioxidant required to reduce the initial concentration of DPPH• to half)” value is 0.19 micromoles antioxidant/micromoles initial DPPH•.

Source of the values: US6936726B2, “Flavanol and cysteamine conjugates” (Consejo Superior de Investigaciones Cientificas, priority 2000, dated 2005).
